In the assay the test system is Phytophthora infestans. Description: microbe, parasite or virus in culture. The assay is classed as cell-based. The following applies: 168 h, read-out: control compared to the untreated check.
On to `CS(=N)(=O)c1cccc(Cl)c1C1CC(c2csc(C3CCN(C(=O)Cn4cc(Cl)cc(C(F)(F)F)c4=O)CC3)n2)=NO1` (centres unmarked) [Compound 1, 5-chloro-1-(2-(4-(4-(5-(2-chloro-6-(S-methylsulfonimidoyl)phenyl)-4,5-dihydroisoxazol-3-yl)thiazol-2-yl)piperidin-1-yl)-2-oxoethyl)-3-(trifluoromethyl)pyridin-2(1H)-one], for which the inhibition of growth at 30 ppm was at least 70%.

As for `CS(=N)(=O)c1cccc(Cl)c1C1CC(c2csc(C3CCN(C(=O)Cn4cc(C(F)(F)F)cc(Cl)c4=O)CC3)n2)=NO1` (centres unmarked) [Compound 2, 3-chloro-1-(2-(4-(4-(5-(2-chloro-6-(S-methylsulfonimidoyl)phenyl)-4,5-dihydroisoxazol-3-yl)thiazol-2-yl)piperidin-1-yl)-2-oxoethyl)-5-(trifluoromethyl)pyridin-2(1H)-one], the inhibition of growth at 30 ppm is at least 70%.

For the compound `CS(=N)(=O)c1cccc(Cl)c1C1CC(c2csc(C3CCN(C(=O)Cn4nc(C(F)F)cc4C(F)F)CC3)n2)=NO1` (centres unmarked) [Compound 3, (2-(3-(2-(1-(2-(3,5-bis (difluoromethyl)-1H-pyrazol-1-yl)acetyl)piperidin-4-yl)thiazol-4-yl)-4,5-dihydroisoxazol-5-yl)-3-chlorophenyl) (imino) (methyl)-λ^6-sulfanone], the inhibition of growth at 30 ppm is at least 70%. In the case of `Cc1cc(C(F)(F)F)nn1CC(=O)N1CCC(c2nc(C3=NOC(c4c(F)cccc4N=S(C)(C)=O)C3)cs2)CC1` (centres unmarked) [Compound 6, ((3-fluoro-2-(3-(2-(1-(2-(5-methyl-3-(trifluoromethyl)-1H-pyrazol-1-yl)acetyl)piperidin-4-yl)thiazol-4-yl)-4,5-dihydroisoxazol-5-yl)phenyl)imino)dimethyl-λ^6-sulfanone] it was at least 70%. Consider `CC(C)S(=N)(=O)c1cccc(Cl)c1C1CC(c2csc(C3CCN(C(=O)Cn4ccnc(C(F)(F)F)c4=O)CC3)n2)=NO1` (centres unmarked) [Compound 64], for which the inhibition of growth at 30 ppm is at least 70%. The value for `CS(=N)(=O)c1cccc(C#N)c1C1CC(c2csc(C3CCN(C(=O)Cn4nc(C(F)F)cc4C(F)F)CC3)n2)=NO1` (centres unmarked) [Compound 164] was at least 70%; that for `CS(=N)(=O)c1cccc(Cl)c1C1CC(c2csc(C3CCN(C(=O)Cn4cc(C(F)(F)F)ccc4=O)CC3)n2)=NO1` (centres unmarked) [Compound 169, 1-(2-(4-(4-(5-(2-chloro-6-(S-methylsulfonimidoyl)phenyl)-4,5-dihydroisoxazol-3-yl)thiazol-2-yl)piperidin-1-yl)-2-oxoethyl)-5-(trifluoromethyl)pyridin-2(1H)-one] was at least 70%.

For the compound `CN=S(C)(=O)c1cccc(Cl)c1C1CC(c2csc(C3CCN(C(=O)Cn4c(C)ccc(C(F)(F)F)c4=O)CC3)n2)=NO1` (centres unmarked) [Compound 174], the inhibition of growth at 30 ppm was at least 70%.

(Values after patent US12577239B2, “Sulfilimines or sulfoximines containing fungicidal heterocyclic compounds” (PI INDUSTRIES LTD., priority 2019, dated 2026).)
